Test results from the OPERA property sets (Mansouri et al. 2018).

Conditions: not given

In order of falling melting point:
1. O=C(O)c1ccc(C(=O)O)c2c(C(=O)O)ccc(C(=O)O)c12  320 °C
2. O=c1c(O)c(-c2ccc(O)cc2O)oc2cc(O)cc(O)c12  304 °C
3. N#Cc1c(Cl)c(Cl)c(Cl)c(C#N)c1Cl  250 °C
4. O=c1ccc2ccc(O)cc2o1  230 °C
5. NC[C@H]1O[C@H](O[C@H]2[C@H](O[C@@H]3O[C@H](CO)[C@@H](O)[C@H]3O)C(O)[C@H](N)C[C@@H]2N)[C@H](N)[C@@H](O)[C@@H]1O (some centres undefined)  194 °C
6. c1ccc(-c2nnc(-c3ccccn3)nc2-c2ccccc2)cc1  192 °C
7. O=C1c2ccccc2-c2cccc3cccc1c23  170 °C
8. CCCCC(C#N)(Cn1ccnc1)c1ccccc1 (centres undefined)  161 °C
9. Cc1ccc2nc3c(ccc4ccccc43)c(C)c2c1  159 °C
10. Nc1ccc(S(=O)(=O)c2ccc(NC(=O)CCC(=O)O)cc2)cc1  157 °C
11. CC(C)(C)c1ccc2cc3ccccc3cc2c1  147 °C
12. O=C(O)c1cc(Cl)ccc1[N+](=O)[O-]  139 °C
13. O=[N+]([O-])c1c(Cl)cccc1-c1c[nH]cc1Cl  124 °C
14. Ic1ccc(-c2ccccc2)cc1  114 °C
15. C=CCc1ccccc1OCC(O)CNC(C)C (centres undefined)  108 °C
16. c1ccc2sc(SN(C3CCCCC3)C3CCCCC3)nc2c1  99.8 °C
17. Clc1ccc2cc[nH]c2c1  90 °C
18. Clc1ccc2cccc(Cl)c2c1  63.5 °C
19. CCc1ccc(C(c2ccc(CC)cc2)C(Cl)Cl)cc1  56 °C
20. NN(c1ccccc1)c1ccccc1  50.5 °C
21. CCCN(CCC)c1c([N+](=O)[O-])cc(C(F)(F)F)cc1[N+](=O)[O-]  49 °C
22. CCc1cc2c(cc1C(C)=O)C(C)(C)CCC2(C)C  46.5 °C
23. c1ccc(CSc2ccccc2)cc1  43.5 °C
24. Oc1ccc(F)c(F)c1F  32 °C
25. O=C1CCSc2ccccc21  29 °C
26. COc1ccc(Br)cc1  13.5 °C
27. Oc1c(Cl)cccc1-c1ccccc1  6 °C
28. CCCCCCCCCCCC(=O)OC  5.2 °C
29. CC1COCc2cc3c(cc21)C(C)(C)C(C)C3(C)C (centres undefined)  -5 °C
30. CC=Cc1ccccc1O  -6 °C
31. CC(=O)N1CCCCC1  -13.4 °C
32. CCOC(=O)C=[N+]=[N-]  -22 °C
33. CCOP(=S)(OCC)SCSC(C)(C)C  -29.2 °C
34. C=Cc1ccc(F)cc1  -34.5 °C
35. Cc1cccc(C)c1N(C)C  -36 °C
36. ClCC(Cl)Cl  -36.6 °C
37. CC(C)CCSCCC(C)C  -74.6 °C
38. COC=O  -99 °C
39. FC(Cl)Br (centres undefined)  -115 °C
40. CCCC(C)(C)C(C)C  -117 °C

In order of rising boiling point:
1. COC=O  31.7 °C
2. FC(Cl)Br (centres undefined)  36 °C
3. C=CCOCC  67.6 °C
4. CC(C)CCN  96 °C
5. ClCC(Cl)Cl  114 °C
6. Cc1nccs1  128 °C
7. CCCC(C)(C)C(C)C  138 °C
8. O=C(Cl)CCCl  144 °C
9. CC/C=C/CCCCC  148 °C
10. CC(C)CCC(C)C(C)C (centres undefined)  156 °C
11. FC(F)(F)C(F)(F)C(F)(F)C(F)(F)C(F)(F)C(F)(F)C(F)(F)C(F)(F)C(F)(F)I  181 °C
12. CCC(=O)OC1CCCCC1  193 °C
13. Cc1cccc(C)c1N(C)C  196 °C
14. CNC(C)CC1CCCCC1 (centres undefined)  205 °C
15. CC(=O)CCC(=O)OC(C)C  209 °C
16. CC(C)CCSCCC(C)C  211 °C
17. CC1C(=O)CC2CC1C2(C)C (centres undefined)  212 °C
18. CCOC(=O)C(C#N)(CC)CC  214 °C
19. CCOC(=O)C(Br)CBr (centres undefined)  214 °C
20. COc1ccc(Br)cc1  215 °C
21. CC=Cc1ccccc1O  220 °C
22. CC(=O)N1CCCCC1  226 °C
23. CCCCOC(=O)CC#N  231 °C
24. CCCCCCCCCCCC(=O)OC  267 °C
25. Clc1ccc2cccc(Cl)c2c1  286 °C
26. Ic1ccc(-c2ccccc2)cc1  320 °C
27. CC1COCc2cc3c(cc21)C(C)(C)C(C)C3(C)C (centres undefined)  325 °C
28. N#Cc1c(Cl)c(Cl)c(Cl)c(C#N)c1Cl  350 °C

In order of rising log10 vapour pressure (mmHg):
1. N#Cc1c(Cl)c(Cl)c(Cl)c(C#N)c1Cl  -6.24
2. CC(C)(C)c1ccc2cc3ccccc3cc2c1  -6.19
3. CC(Cc1ccc(C(C)(C)C)cc1)CN1C[C@@H](C)O[C@@H](C)C1 (single isomer, unassigned)  -4.59
4. CCCN(CCC)c1c([N+](=O)[O-])cc(C(F)(F)F)cc1[N+](=O)[O-]  -4.34
5. CCOP(=S)(OCC)SCSC(C)(C)C  -3.49
6. NN(c1ccccc1)c1ccccc1  -3.31
7. CC1COCc2cc3c(cc21)C(C)(C)C(C)C3(C)C (centres undefined)  -3.26
8. CCCCCCCCCCCC(=O)OC  -2.39
9. COc1ccc(Br)cc1  -0.692
10. CC(C)CCSCCC(C)C  -0.497
11. CCOC(=O)C=[N+]=[N-]  0.447
12. CCCC(C)(C)C(C)C  0.993
13. ClCC(Cl)Cl  1.36
14. C=CCOCC  2.18
15. COC=O  2.77

In order of rising log10 Henry constant (atm·m³/mol):
1. N#Cc1c(Cl)c(Cl)c(Cl)c(C#N)c1Cl  -5.7
2. CCCN(CCC)c1c([N+](=O)[O-])cc(C(F)(F)F)cc1[N+](=O)[O-]  -3.99
3. COC=O  -3.65
4. ClCC(Cl)Cl  -3.08

In order of rising log10 Koc (L/kg):
1. ClCC(Cl)Cl  1.89
2. CCOP(=S)(OCC)SCSC(C)(C)C  2.82
3. N#Cc1c(Cl)c(Cl)c(Cl)c(C#N)c1Cl  3.26
4. CCCN(CCC)c1c([N+](=O)[O-])cc(C(F)(F)F)cc1[N+](=O)[O-]  4.2

In the case of `CCCN(CCC)c1c([N+](=O)[O-])cc(C(F)(F)F)cc1[N+](=O)[O-]`, the ready biodegradability is reported as “not readily biodegradable”.
In the case of `N#Cc1c(Cl)c(Cl)c(Cl)c(C#N)c1Cl`, the ready biodegradability is reported as “readily biodegradable”.
For `CCCCCCCCCCCC(=O)OC`, the ready biodegradability was “readily biodegradable”.
For `O=C1c2ccccc2-c2cccc3cccc1c23`, the ready biodegradability was “not readily biodegradable”.
With `Cc1ccc(N)c(S(=O)(=O)O)c1` the ready biodegradability was “not readily biodegradable”.
In the case of `ClCC(Cl)Cl`, the ready biodegradability is reported as “not readily biodegradable”.
With `c1ccc2sc(SN(C3CCCCC3)C3CCCCC3)nc2c1` the ready biodegradability was “not readily biodegradable”.
In the case of `O=C1NC(=O)c2c(Cl)c(Cl)c(Cl)c(Cl)c21`, the ready biodegradability is reported as “not readily biodegradable”.

In order of rising log10 Koa:
1. COC=O  1.75
2. ClCC(Cl)Cl  3.4
3. Clc1cc2oc3c(Cl)c(Cl)c(Cl)c(Cl)c3c2c(Cl)c1Cl  11.4

Same assay, conditions: fish

In order of rising log10 BCF:
1. CN(C)C=O  -0.1
2. COP(=S)(OC)SCN1C(=O)c2ccccc2C1=O  0.26
3. Cc1ccc(N)c(S(=O)(=O)O)c1  0.6
4. ClCC(Cl)Cl  0.7
5. ClCCl  1.36
6. N#Cc1c(Cl)c(Cl)c(Cl)c(C#N)c1Cl  1.8
7. O=C1c2ccccc2-c2cccc3cccc1c23  2.09
8. Cc1cc(Cc2cc(C)cc(C(C)(C)C)c2O)c(O)c(C(C)(C)C)c1  2.74
9. CCCCC(CC)COC(=O)c1ccccc1C(=O)OCC(CC)CCCC (centres undefined)  2.77
10. CCCN(CCC)c1c([N+](=O)[O-])cc(C(F)(F)F)cc1[N+](=O)[O-]  3.36

In order of falling log10 biotransformation half-life (days):
1. CCCN(CCC)c1c([N+](=O)[O-])cc(C(F)(F)F)cc1[N+](=O)[O-]  0.62
2. CCCCC(CC)COC(=O)c1ccccc1C(=O)OCC(CC)CCCC (centres undefined)  0.44
3. N#Cc1c(Cl)c(Cl)c(Cl)c(C#N)c1Cl  0.27
4. Cc1cc(Cc2cc(C)cc(C(C)(C)C)c2O)c(O)c(C(C)(C)C)c1  0.03
5. ClCCl  -0.51
6. O=C1c2ccccc2-c2cccc3cccc1c23  -0.69
7. ClCC(Cl)Cl  -1.01
